Literature values, collected in patent publication US8652504B2, “Solid polymer delivery compositions and methods for use thereof” (Medivas, LLC, priority 2005, dated 2014).

Assays:
nerve impulses = conditions: local anesthetic
[1] = in vivo

| serum bupivacaine level (one patient receiving 0.5% intra-articular bupivacaine at 4 mL/hr) [µg/mL] | SMILES | morphine requirements and subjective pain scores (intra-articular bupivacaine (up to 0.5%) at 4 mL/hr, first 24 hours after surgery) | duration of action (nerve impulses) [h] | serum bupivacaine level at which toxicity has been reported / generally considered toxic [1] [µg/mL] |
| --- | --- | --- | --- | --- |
| 1.2 | CCCCN1CCCCC1C(=O)Nc1c(C)cccc1C (centres unmarked) [bupivacaine] | neither reduced morphine requirements nor decreased subjective pain scores | 6 to 8 | 1.0 |
| – | CCN(CC)CC(=O)Nc1c(C)cccc1C [lidocaine] | – | 1 to 2 | – |
